System: HT-29
Assay: Compound was tested in vitro for antiproliferative activity against human HT-29 cell line
Assay type: functional, cell-based

SMILES	IC50 [µM]
Nc1cc[n+](Cc2ccc(CCc3ccc(C[n+]4ccc(N)cc4)cc3)cc2)cc1	4
CN(C)c1cc[n+](Cc2ccc(CCc3ccc(C[n+]4ccc(N(C)C)cc4)cc3)cc2)cc1	2
OCc1cc[n+](Cc2ccc(CCc3ccc(C[n+]4ccc(CO)cc4)cc3)cc2)cc1	> 100
O=C(O)c1cc[n+](Cc2ccc(CCc3ccc(C[n+]4ccc(C(=O)O)cc4)cc3)cc2)cc1	> 1000
N#Cc1cc[n+](Cc2ccc(CCc3ccc(C[n+]4ccc(C#N)cc4)cc3)cc2)cc1	200
Cc1cc[n+](Cc2ccc(CCc3ccc(C[n+]4ccc(C)cc4)cc3)cc2)cc1	20
C[N+]1(C)CCOC(O)(c2ccc(-c3ccc(C4(O)C[N+](C)(C)CCO4)cc3)cc2)C1 (stereo unspecified) [HEMICHOLINIUM-3]	2500

These reach a lower IC50. Values come first.

IC50 [µM]	SMILES
1	c1cc(C[n+]2ccc(N3CCCC3)cc2)ccc1CCc1ccc(C[n+]2ccc(N3CCCC3)cc2)cc1
0.55	C=CCN(CC=C)c1cc[n+](Cc2ccc(CCc3ccc(C[n+]4ccc(N(CC=C)CC=C)cc4)cc3)cc2)cc1
0.4	c1cc(C[n+]2ccc(N3CCCCC3)cc2)ccc1CCc1ccc(C[n+]2ccc(N3CCCCC3)cc2)cc1
0.4	c1cc(C[n+]2ccc(N3CCCCCC3)cc2)ccc1CCc1ccc(C[n+]2ccc(N3CCCCCC3)cc2)cc1

From ChEMBL document CHEMBL1133498, “QSAR of 1,1'-(1,2-ethylenebisbenzyl)bis(4-substitutedpyridinium) dibromides as choline kinase inhibitors: a different approach for antiproliferative drug design” (Bioorg Med Chem Lett, 2000)
